Consider 23 compounds from patent US20120264735A1 (priority 2009, published 2012).

In this assay the target is T1, c-Met kinase (recombinant c-Met) (Homo sapiens, UniProt P08581).
T1 construct: 0.27 nM recombinant c-Met
T1 sequence (P08581 25-1390): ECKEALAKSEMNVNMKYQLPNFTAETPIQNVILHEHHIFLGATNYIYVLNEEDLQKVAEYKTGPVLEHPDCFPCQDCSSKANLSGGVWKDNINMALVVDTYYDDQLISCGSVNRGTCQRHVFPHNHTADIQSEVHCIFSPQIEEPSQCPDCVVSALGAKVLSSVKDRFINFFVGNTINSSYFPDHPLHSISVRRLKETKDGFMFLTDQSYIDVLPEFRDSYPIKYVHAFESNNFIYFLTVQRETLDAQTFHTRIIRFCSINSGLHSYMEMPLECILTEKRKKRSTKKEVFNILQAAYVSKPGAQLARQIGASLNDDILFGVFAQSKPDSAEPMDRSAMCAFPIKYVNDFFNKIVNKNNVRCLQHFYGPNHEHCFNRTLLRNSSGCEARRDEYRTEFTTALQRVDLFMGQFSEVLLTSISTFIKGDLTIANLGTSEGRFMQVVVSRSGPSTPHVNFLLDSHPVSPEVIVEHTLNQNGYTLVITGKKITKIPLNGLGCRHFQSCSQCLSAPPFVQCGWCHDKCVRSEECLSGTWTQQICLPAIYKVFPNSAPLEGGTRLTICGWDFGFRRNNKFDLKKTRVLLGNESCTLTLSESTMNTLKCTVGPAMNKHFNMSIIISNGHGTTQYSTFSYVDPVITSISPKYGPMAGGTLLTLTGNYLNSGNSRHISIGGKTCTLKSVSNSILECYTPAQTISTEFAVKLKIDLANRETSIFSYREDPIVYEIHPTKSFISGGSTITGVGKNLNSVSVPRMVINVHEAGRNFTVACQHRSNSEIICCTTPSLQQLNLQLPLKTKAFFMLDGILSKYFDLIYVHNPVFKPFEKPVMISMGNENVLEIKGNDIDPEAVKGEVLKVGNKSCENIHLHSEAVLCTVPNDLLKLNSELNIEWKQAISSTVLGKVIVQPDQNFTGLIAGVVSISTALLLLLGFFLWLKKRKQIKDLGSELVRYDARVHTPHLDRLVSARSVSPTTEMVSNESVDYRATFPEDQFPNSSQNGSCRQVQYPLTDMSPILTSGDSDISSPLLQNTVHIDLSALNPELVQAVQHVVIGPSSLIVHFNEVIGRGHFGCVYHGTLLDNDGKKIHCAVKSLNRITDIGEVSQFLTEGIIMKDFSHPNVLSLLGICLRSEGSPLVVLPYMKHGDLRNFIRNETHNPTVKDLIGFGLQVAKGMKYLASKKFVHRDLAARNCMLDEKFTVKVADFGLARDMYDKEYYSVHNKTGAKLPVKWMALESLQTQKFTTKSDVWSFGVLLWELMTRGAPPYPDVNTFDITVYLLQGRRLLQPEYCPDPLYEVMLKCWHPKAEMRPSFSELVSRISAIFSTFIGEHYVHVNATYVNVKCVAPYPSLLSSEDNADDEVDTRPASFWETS
The assay can be described thus: In vitro kinase assay I (homogeneous time-resolved fluorescence tyrosine kinase assay). In kind it is biochemical. The method, boiled down:
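Biotinylated peptide (0.5 μM) phosphorylated by 0.2 nM recombinant c-Met with 50 μM MgATP, 60 min at room temperature, pH 7.4, 5% DMSO. EDTA stop; HTRF read with Eu-anti-phosphotyrosine antibody and streptavidin-APC. IC50 from 4-parameter logistic fit.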
One may read the IC50 as the point on the concentration scale where inhibition reaches its midpoint. In the case of `CCn1cc(-n2ccc(=O)c(C(C)c3cccc(-c4ncc(OCC5(F)CCNCC5)cn4)c3)n2)cn1` (single isomer, unassigned) [Example 338, 1-(1-ethyl-1H-pyrazol-4-yl)-3-[(1R or S)-1-(3-{5-[(4-fluoropiperidin-4-yl)methoxy]pyrimidin-2-yl}phenyl)ethyl]pyridazin-4(1H)-one], the IC50 is under 100 nM.
`Cn1cc(-n2ccc(=O)c(Cc3cccc(-c4ncc(C5CCCO5)cn4)c3)n2)cn1` (racemic) [Example 198, rac-1-(1-Methyl-1H-pyrazol-4-yl)-3-{3-[5-(tetrahydrofuran-2-yl)pyrimidin-2-yl]benzyl}pyridazin-4(1H)-one]: the IC50 is under 100 nM.
For the compound `CCOc1cnc(-c2cccc(C(C)c3nn(-c4cnn(CCO)c4)ccc3=O)c2)nc1` (single isomer, unassigned) [Example 255, 3-{(1S or R)-1-[3-(5-Ethoxypyrimidin-2-yl)phenyl]ethyl}-1-[1-(2-hydroxyethyl)-1H-pyrazol-4-yl]pyridazin-4(1H)-one], the IC50 was in the range of 100 to 1000 nM.
On to `COCCOCCOC(=O)Nc1cccc(Cc2nn(-c3cc(F)c(F)c(F)c3)ccc2=O)c1` [Example 599, 2-(2-methoxyethoxy)ethyl (3-{[4-oxo-1-(3,4,5-trifluorophenyl)-1,4-dihydropyridazin-3-yl]methyl}phenyl)carbamate], for which the concentration for half-maximal inhibition (IC50) was under 100 nM.
As to `COCCOc1cnc(-c2cccc(Cc3nn(-c4ccc(F)c(F)c4)ccc3=O)c2)nc1` [Example 317, 1-(3,4-difluorophenyl)-3-{3-[5-(2-methoxyethoxy)pyrimidin-2-yl]benzyl}pyridazin-4(1H)-one], the IC50 was under 100 nM.
On to `O=C(Nc1cccc(Cc2nn(-c3cc(F)c(F)c(F)c3)ccc2=O)c1)OCC1CCCC1` [Example 556, cyclopentylmethyl (3-{[4-oxo-1-(3,4,5-trifluorophenyl)-1,4-dihydropyridazin-3-yl]methyl}phenyl)carbamate], for which the IC50 was under 100 nM.
Then `CCn1cc(-n2ccc(=O)c(Cc3cccc(-c4ncc(OC5CCOC5)cn4)c3)n2)cn1` (racemic) [Example 309, rac-1-(1-ethyl-1H-pyrazol-4-yl)-3-{3-[5-(tetrahydrofuran-3-yloxy)pyrimidin-2-yl]benzyl}pyridazin-4(1H)-one], with under 100 nM.
Then `CCOc1cnc(-c2cccc(Cc3nn(-c4cnn(C5COC5)c4)ccc3=O)c2)nc1` [Example 660, 3-[3-(5-Ethoxypyrimidin-2-yl)benzyl]-1-[1-(oxetan-3-yl)-1H-pyrazol-4-yl]pyridazin-4(1H)-one], with under 100 nM; and `[2H]C([2H])([2H])n1cc(-n2ccc(=O)c(C(F)c3cccc(-c4ncc(OCC)cn4)c3)n2)cn1` (racemic) [Example 657, rac-3-[[3-(5-Ethoxypyrimidin-2-yl)phenyl](fluoro)methyl]-1-(1-methyl-1H-pyrazol-4-yl)pyridazin-4(1H)-one-d3], with under 100 nM; and `CC(C)CCn1cnc(-c2cccc(Cc3nn(-c4cnn(C)c4)ccc3=O)c2)n1` [Example 78, 3-{3-[1-(3-methylbutyl)-1H-1,2,4-triazol-3-yl]benzyl}-1-(1-methyl-1H-pyrazol-4-yl)pyridazin-4(1H)-one], with under 100 nM.
With `COc1cnc(-c2cccc(Cc3nn(-c4cnn(CC(C)C)c4)ccc3=O)c2)nc1` [Example 95, 3-[3-(5-methoxypyrimidin-2-yl)benzyl]-1-[1-(2-methylpropyl)-1H-pyrazol-4-yl]pyridazin-4(1H)-one], the IC50 was under 100 nM.
Consider `Cn1cc(-n2ccc(=O)c(Cc3cccc(NC(=O)OCCn4ccnc4)c3)n2)cn1` [Example 510, 2-(1H-Imidazol-1-yl)ethyl(3-{[1-(1-methyl-1H-pyrazol-4-yl)-4-oxo-1,4-dihydropyridazin-3-yl]methyl}phenyl)carbamate], for which the IC50 is under 100 nM.
Take `CC(c1cccc(-c2ncc(-n3cnnc3)cn2)c1)c1nn(-c2cnn(C)c2)ccc1=O` (single isomer, unassigned) [Example 240, 1-(1-methyl-1H-pyrazol-4-yl)-3-[(1R or S)-1-{3-[5-(4H-1,2,4-triazol-4-yl)pyrimidin-2-yl]phenyl}ethyl]pyridazin-4(1H)-one]: the half-inhibitory concentration (IC50) is 100 to 1000 nM.
On to `Cn1cc(-n2ccc(=O)c(Cc3cccc(-c4ncc(N)cn4)c3)n2)cn1` [Example 183, 3-[3-(5-Aminopyrimidin-2-yl)benzyl]-1-(1-methyl-1H-pyrazol-4-yl)pyridazin-4(1H)-one], for which the IC50 is under 100 nM.
For `Cn1cc(-n2ccc(=O)c(Cc3cccc(-c4ncc(C5CCNCC5)cn4)c3)n2)cn1` [Example 200, 1-(1-Methyl-1H-pyrazol-4-yl)-3-{3-[5-(piperidin-4-yl)pyrimidin-2-yl]benzyl}pyridazin-4(1H)-one], the concentration for half-maximal inhibition (IC50) is under 100 nM.
Turning to `Cn1cc(-n2ccc(=O)c(Cc3cccc(NC(=O)OCCC4CCOCC4)c3)n2)cn1` [Example 565, 2-(tetrahydro-2H-pyran-4-yl)ethyl (3-{[1-(1-methyl-1H-pyrazol-4-yl)-4-oxo-1,4-dihydropyridazin-3-yl]methyl}phenyl)carbamate], the IC50 was under 100 nM.
Then `CC1CCC(=O)N1[C@@H](C)COC(=O)Nc1cccc(Cc2nn(-c3cnn(C)c3)ccc2=O)c1` (single isomer, unassigned) [Example 610, (2S)-2-[(2R or S)-2-methyl-5-oxopyrrolidin-1-yl]propyl (3-{[1-(1-methyl-1H-pyrazol-4-yl)-4-oxo-1,4-dihydropyridazin-3-yl]methyl}phenyl)carbamate], with under 100 nM; and `O=C(Nc1cccc(Cc2nn(-c3cc(F)c(F)c(F)c3)ccc2=O)c1)OCC1CCCCC1` [Example 557, cyclohexylmethyl (3-{[4-oxo-1-(3,4,5-trifluorophenyl)-1,4-dihydropyridazin-3-yl]methyl}phenyl)carbamate], with under 100 nM; and `CCOc1cnc(-c2cccc(Cc3nn(-c4cccc(C(N)=O)c4)ccc3=O)c2)nc1` [Example 736, 3-[3-[3-(5-ethoxypyrimidin-2-yl)benzyl]-4-oxopyridazin-1(4H)-yl]benzamide], with under 100 nM.
As to `COc1cnc(-c2cccc(C(C)c3nn(-c4cnn(C)c4)ccc3=O)c2)nc1` (single isomer, unassigned) [Example 203, 3-{(1S or R)-1-[3-(5-Methoxypyrimidin-2-yl)phenyl]ethyl}-1-(1-methyl-1H-pyrazol-4-yl)pyridazin-4(1H)-one], the IC50 fell in the range of 100 to 1000 nM.
In the case of `N#Cc1cncc(-n2ccc(=O)c(Cc3cccc(NC(=O)OCC4CCOC4)c3)n2)c1` (racemic) [Example 130, rac-tetrahydrofuran-3-ylmethyl (3-{[1-(5-cyanopyridin-3-yl)-4-oxo-1,4-dihydropyridazin-3-yl]methyl}phenyl)carbamate], the IC50 is under 100 nM.
With `CC(C)COC(=O)Nc1cccc(Cc2nn(-c3cnn(CCC(=O)NC4COC4)c3)ccc2=O)c1` [Example 704, 2-methylpropyl {3-[(1-{1-[3-(oxetan-3-ylamino)-3-oxopropyl]-1H-pyrazol-4-yl}-4-oxo-1,4-dihydropyridazin-3-yl)methyl]phenyl} carbamate], the IC50 is under 100 nM.
Regarding `CCOc1cnc(-c2cccc(Cc3nn(-c4cc(F)c(Br)c(F)c4)ccc3=O)c2)nc1` [Example 147, 1-(4-bromo-3,5-difluorophenyl)-3-[3-(5-ethoxypyrimidin-2-yl)benzyl]pyridazin-4(1H)-one], the IC50 is under 100 nM.
